These are literature values, as cited in US7329659B2, “Substituted-1-phthalazinamines as vr-1 antagonists” (Merck Sharp & Dohme Limited, priority 2003, dated 2008).

For the data set, the target named is VR1 (Rattus norvegicus, UniProt O35433). To be noted: Wahl et al., Mol. Pharmacol., 59:9, 2001.
Chain of VR1 (O35433 whole entry): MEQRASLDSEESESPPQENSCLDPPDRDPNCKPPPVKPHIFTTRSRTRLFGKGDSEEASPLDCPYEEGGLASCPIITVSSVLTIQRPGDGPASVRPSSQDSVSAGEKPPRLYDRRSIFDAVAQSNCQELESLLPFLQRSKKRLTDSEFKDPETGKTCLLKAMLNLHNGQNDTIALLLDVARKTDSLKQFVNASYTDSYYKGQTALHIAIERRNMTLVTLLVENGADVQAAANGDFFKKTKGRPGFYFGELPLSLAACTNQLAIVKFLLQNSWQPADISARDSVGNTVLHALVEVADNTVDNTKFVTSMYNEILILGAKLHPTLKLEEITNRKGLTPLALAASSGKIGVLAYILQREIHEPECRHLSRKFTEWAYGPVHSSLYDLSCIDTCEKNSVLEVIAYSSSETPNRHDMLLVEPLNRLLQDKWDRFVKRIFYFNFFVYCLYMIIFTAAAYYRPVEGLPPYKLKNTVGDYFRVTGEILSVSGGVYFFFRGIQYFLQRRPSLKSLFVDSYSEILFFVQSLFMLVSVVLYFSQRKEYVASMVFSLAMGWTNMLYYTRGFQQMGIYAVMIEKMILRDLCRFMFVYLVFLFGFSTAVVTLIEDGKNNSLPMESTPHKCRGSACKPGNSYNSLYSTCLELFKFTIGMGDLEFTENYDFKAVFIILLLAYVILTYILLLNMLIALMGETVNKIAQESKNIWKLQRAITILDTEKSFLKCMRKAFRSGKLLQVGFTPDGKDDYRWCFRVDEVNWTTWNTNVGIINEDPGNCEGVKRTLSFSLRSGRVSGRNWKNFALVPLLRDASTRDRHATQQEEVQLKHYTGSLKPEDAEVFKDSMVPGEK

Turning to `C=C(C)[C@]12C[C@@H](C)[C@@]34O[C@](Cc5ccccc5)(O[C@@H]1[C@@H]3C=C(COC(=O)Cc1cc(I)c(O)c(OC)c1)C[C@]1(O)C(=O)C(C)=C[C@@H]41)O2` [Iodo-resiniferatoxin], the “VR1 antagonist potency (in words)” value was “nanomolar antagonist of VR1”.
